In the supplement of paper PMC12463676, “Small-molecule dissolution of stress granules by redox modulation benefits ALS models” (Nature Chemical Biology, 2025):

What was measured:
potassium arsenate = compound: O=[As]([O-])(O)O.[K+] [potassium arsenate]; assay: thermal stability z-score vs DMSO; higher = more thermally stabilized by treatment; details: HeLa; arsenate concentration 1 mM
Description: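 Cellular thermal proteome profiling in HeLa cells treated with 1 mM arsenate for 1 h (DMSO pretreatment), heated to ten temperatures (37-66.3 °C). Soluble protein was quantified by TMT mass spectrometry relative to DMSO controls; the thermal stability score was transformed to a z-score; mean of n = 3 experiments.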

lipoamide = compound: NC(=O)CCCCC1CCSS1 [lipoamide]; assay: as above; details: HeLa, lipoamide concentration 100 µM
Description: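 Cellular thermal proteome profiling in HeLa cells. Cells were treated with 100 µM lipoamide for 1 h, with or without 1 mM arsenate for a further 1 h, then heated to ten temperatures (37-66.3 °C), and soluble protein was quantified by TMT mass spectrometry relative to 0.1% DMSO controls. The thermal stability score (sum of log2 fold changes minus the abundance score) was transformed to a z-score; mean of n = 3 experiments.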

[1] = arsenate co-treatment: 1 mM arsenate 1 h
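Further: each temperature applied for 3 min, abundance score taken as mean log2 fold change at the two lowest temperatures, z-score obtained by mean subtraction and division by SD.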

Sequence of UniProt Q15287 (Q15287 whole entry): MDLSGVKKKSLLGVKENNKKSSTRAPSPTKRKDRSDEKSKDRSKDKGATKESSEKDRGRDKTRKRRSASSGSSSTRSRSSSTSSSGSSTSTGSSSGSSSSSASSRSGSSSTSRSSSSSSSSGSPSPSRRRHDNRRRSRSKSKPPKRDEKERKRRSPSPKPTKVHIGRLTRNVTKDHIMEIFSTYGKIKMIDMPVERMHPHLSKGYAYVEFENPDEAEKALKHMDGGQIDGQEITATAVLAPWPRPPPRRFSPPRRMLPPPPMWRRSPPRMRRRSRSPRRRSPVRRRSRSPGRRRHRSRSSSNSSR
Sequence of UniProt Q9BRS2 (Q9BRS2 whole entry): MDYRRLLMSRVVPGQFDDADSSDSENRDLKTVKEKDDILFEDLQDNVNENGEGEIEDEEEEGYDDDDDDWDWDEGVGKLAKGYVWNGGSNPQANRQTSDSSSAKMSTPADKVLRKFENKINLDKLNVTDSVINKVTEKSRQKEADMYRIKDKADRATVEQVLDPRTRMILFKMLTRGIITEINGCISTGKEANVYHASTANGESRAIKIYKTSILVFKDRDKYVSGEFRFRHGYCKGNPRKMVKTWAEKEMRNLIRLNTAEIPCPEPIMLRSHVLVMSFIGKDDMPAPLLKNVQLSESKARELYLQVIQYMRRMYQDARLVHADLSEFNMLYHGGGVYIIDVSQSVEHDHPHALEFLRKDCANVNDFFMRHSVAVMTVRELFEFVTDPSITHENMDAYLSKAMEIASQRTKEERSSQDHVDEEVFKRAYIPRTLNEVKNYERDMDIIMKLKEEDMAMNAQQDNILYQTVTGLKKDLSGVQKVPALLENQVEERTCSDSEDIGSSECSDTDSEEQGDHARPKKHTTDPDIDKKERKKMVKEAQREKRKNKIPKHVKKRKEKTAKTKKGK
Sequence of UniProt O15541 (O15541 whole entry): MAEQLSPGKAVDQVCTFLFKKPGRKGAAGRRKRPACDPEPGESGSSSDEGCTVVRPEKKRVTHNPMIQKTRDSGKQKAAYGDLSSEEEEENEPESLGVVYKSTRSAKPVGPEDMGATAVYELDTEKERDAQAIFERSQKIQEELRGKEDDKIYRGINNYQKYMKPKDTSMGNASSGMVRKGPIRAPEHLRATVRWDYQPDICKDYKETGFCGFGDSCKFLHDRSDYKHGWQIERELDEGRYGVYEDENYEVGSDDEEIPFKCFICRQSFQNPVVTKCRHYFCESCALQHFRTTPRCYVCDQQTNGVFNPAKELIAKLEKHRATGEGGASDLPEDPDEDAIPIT
Sequence of UniProt P78317 (P78317 whole entry): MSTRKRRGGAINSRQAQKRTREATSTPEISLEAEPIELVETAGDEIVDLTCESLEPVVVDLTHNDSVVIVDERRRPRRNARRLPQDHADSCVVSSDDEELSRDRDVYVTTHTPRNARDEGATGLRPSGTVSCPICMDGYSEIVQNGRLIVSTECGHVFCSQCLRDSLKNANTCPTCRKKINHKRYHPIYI
Sequence of UniProt Q8WU17 (Q8WU17 whole entry): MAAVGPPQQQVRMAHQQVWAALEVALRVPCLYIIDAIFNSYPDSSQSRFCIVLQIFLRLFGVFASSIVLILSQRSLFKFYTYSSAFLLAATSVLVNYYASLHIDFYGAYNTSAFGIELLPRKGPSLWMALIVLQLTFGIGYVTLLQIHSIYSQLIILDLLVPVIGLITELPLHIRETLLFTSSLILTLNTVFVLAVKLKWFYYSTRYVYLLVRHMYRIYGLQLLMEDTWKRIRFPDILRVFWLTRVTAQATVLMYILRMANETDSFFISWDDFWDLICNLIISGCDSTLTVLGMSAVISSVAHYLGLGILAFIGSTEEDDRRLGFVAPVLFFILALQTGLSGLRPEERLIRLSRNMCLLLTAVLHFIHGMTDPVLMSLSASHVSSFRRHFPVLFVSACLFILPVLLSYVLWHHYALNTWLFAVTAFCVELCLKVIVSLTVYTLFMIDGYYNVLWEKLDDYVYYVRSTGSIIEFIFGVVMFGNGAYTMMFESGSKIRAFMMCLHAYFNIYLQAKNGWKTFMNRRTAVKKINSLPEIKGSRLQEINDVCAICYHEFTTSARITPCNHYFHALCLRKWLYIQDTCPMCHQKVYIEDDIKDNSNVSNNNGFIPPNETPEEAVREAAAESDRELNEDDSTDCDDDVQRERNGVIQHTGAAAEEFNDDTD
Sequence of UniProt Q9UBS8 (Q9UBS8 whole entry): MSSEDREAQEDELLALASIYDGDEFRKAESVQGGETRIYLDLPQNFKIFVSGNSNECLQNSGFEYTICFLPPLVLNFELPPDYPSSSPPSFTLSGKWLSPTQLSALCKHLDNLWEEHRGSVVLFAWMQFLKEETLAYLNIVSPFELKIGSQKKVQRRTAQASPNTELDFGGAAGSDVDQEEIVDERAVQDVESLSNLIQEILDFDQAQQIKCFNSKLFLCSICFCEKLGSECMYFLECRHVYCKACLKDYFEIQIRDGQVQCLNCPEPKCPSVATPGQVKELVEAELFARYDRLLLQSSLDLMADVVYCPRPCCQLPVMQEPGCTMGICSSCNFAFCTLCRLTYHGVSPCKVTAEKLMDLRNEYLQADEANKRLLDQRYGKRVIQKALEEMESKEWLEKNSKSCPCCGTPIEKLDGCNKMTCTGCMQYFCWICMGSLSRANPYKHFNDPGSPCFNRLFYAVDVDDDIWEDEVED
Sequence of UniProt Q8TDP1 (Q8TDP1 whole entry): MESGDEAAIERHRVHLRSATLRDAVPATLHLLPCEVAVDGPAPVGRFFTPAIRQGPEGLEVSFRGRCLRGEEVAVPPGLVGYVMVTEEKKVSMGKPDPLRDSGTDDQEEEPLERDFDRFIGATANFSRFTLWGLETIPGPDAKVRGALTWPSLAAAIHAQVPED
Sequence of UniProt Q96BH1 (Q96BH1 whole entry): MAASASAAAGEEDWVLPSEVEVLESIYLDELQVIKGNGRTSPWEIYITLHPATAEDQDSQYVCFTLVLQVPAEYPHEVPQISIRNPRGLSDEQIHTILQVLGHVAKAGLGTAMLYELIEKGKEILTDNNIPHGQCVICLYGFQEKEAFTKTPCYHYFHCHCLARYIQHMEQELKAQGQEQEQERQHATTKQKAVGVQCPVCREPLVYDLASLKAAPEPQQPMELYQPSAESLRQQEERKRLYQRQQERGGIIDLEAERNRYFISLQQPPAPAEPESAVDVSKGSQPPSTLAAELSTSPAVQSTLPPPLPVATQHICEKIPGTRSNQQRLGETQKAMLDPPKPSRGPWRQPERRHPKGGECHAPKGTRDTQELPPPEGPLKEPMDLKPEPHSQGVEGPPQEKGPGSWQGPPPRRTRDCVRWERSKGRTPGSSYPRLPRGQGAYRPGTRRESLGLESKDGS
Sequence of UniProt Q9BVS4 (Q9BVS4 whole entry, looked up): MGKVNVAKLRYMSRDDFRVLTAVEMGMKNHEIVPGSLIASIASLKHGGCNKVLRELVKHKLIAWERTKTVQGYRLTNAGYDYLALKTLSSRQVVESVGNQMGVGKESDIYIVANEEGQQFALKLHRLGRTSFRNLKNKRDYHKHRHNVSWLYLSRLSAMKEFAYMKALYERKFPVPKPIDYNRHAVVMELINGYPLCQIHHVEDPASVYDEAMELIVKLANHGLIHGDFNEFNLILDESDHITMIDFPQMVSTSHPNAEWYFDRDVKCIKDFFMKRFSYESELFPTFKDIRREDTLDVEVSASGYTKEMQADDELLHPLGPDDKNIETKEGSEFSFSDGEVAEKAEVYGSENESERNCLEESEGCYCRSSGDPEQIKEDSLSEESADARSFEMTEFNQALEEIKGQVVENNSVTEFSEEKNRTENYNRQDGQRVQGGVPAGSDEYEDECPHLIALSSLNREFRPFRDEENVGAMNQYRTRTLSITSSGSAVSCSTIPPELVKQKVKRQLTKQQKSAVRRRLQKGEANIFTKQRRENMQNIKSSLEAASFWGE
Sequence of UniProt O60942 (O60942 whole entry): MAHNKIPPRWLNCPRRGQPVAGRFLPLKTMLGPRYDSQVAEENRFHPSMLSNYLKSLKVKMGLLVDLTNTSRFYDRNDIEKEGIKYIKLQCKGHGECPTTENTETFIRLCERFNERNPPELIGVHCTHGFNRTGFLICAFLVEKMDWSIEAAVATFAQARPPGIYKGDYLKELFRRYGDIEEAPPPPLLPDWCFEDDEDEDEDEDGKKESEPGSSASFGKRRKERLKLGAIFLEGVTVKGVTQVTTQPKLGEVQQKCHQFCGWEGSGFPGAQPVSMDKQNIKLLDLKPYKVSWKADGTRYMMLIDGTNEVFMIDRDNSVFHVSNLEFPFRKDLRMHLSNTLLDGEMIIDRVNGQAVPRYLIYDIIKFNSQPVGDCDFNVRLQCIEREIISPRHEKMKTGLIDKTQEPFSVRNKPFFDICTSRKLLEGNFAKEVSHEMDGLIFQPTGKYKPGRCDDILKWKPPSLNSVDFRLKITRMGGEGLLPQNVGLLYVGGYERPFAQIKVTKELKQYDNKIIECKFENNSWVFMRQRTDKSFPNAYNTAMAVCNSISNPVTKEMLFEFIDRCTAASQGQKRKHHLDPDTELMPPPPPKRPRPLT
Sequence of UniProt Q969K3 (Q969K3 whole entry): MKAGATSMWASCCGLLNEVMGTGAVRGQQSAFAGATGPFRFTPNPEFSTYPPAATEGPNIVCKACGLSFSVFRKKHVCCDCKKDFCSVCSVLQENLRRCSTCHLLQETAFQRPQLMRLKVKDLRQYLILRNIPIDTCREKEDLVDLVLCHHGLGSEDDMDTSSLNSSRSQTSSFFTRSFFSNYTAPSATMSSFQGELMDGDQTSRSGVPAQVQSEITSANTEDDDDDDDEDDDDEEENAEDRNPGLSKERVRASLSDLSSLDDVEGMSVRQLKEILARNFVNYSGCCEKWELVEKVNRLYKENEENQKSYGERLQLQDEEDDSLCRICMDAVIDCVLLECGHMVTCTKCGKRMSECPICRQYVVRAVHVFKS
Sequence of UniProt Q9Y508 (Q9Y508 whole entry): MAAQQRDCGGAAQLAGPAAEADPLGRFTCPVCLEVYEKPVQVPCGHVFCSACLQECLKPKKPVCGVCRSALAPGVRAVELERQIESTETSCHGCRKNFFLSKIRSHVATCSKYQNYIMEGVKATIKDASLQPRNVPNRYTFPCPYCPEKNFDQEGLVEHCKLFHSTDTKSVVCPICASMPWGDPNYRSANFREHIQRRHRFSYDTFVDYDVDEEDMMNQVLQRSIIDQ

| Target | thermal stability z-score (potassium arsenate) | thermal stability z-score (lipoamide; [1]) | thermal stability z-score (lipoamide; arsenate co-treatment: none) |
| --- | --- | --- | --- |
| RIOK1 (UniProt Q9BRS2) | -1.27 | -0.529 | -0.513 |
| RIOK2 (UniProt Q9BVS4) | -0.171 | -0.0928 | -0.423 |
| RIOK3 (UniProt O14730) | 0.507 | -0.0448 | -0.0085 |
| RIPK1 (UniProt Q13546) | 0.39 | -0.595 | -1.03 |
| RIPK2 (UniProt O43353) | -0.644 | -0.255 | 0.45 |
| RLIM (UniProt Q9NVW2) | 0.107 | -0.546 | -0.0531 |
| RMDN1 (UniProt Q96DB5) | 0.171 | 0.0143 | -0.0301 |
| RMDN3 (UniProt Q96TC7) | 0.289 | -0.522 | -0.501 |
| RMND1 (UniProt Q9NWS8) | 0.244 | 0.392 | 0.519 |
| RMND5A (UniProt Q9H871) | 0.156 | 0.216 | 0.0656 |
| RNASEH2A (UniProt O75792) | 0.138 | 0.0654 | 0.493 |
| RNASEH2B (UniProt Q5TBB1) | -0.161 | 0.719 | 0.517 |
| RNASEH2C (UniProt Q8TDP1) | -0.406 | -0.258 | -0.493 |
| RNF2 (UniProt Q99496) | -0.107 | -0.111 | -0.172 |
| RNF4 (UniProt P78317) | -0.192 | -1.23 | -0.848 |
| RNF5 (UniProt Q99942) | -0.145 | -0.0839 | 0.142 |
| RNF10 (UniProt Q8N5U6) | -0.23 | -0.0188 | -0.286 |
| RNF14 (UniProt Q9UBS8) | 0.158 | -1.18 | 0.11 |
| RNF20 (UniProt Q5VTR2) | -0.112 | -0.218 | -0.026 |
| RNF25 (UniProt Q96BH1) | -1.12 | -0.412 | -0.217 |
| RNF31 (UniProt Q96EP0) | -0.255 | -0.101 | 0.0489 |
| RNF34 (UniProt Q969K3) | -0.392 | -0.0298 | 0.0211 |
| RNF40 (UniProt O75150) | 0.711 | 0.453 | 0.161 |
| RNF113A (UniProt O15541) | -0.554 | -0.642 | -0.0196 |
| RNF114 (UniProt Q9Y508) | -1.6 | -0.534 | -0.407 |
| RNF121 (UniProt Q9H920) | -1.09 | -1 | -0.693 |
| RNF123 (UniProt Q5XPI4) | -0.445 | -0.194 | -0.0174 |
| RNF126 (UniProt Q9BV68) | -2.65 | -1 | -1.02 |

| Target | thermal stability z-score (potassium arsenate) | thermal stability z-score (lipoamide; [1]) | thermal stability z-score (lipoamide; arsenate co-treatment: none) |
| --- | --- | --- | --- |
| RNF139 (UniProt Q8WU17) | 0.947 | -1.16 | -0.12 |
| RNF149 (UniProt Q8NC42) | -0.556 | -0.375 | -0.859 |
| RNF167 (UniProt Q9H6Y7) | 0.669 | -0.267 | -0.216 |
| RNF169 (UniProt Q8NCN4) | -0.0867 | -0.0589 | 0.0354 |
| RNF181 (UniProt Q9P0P0) | 0.00117 | 1.27 | 1.68 |
| RNF187 (UniProt Q5TA31) | -0.503 | -0.474 | -1.96 |
| RNF213 (UniProt Q63HN8) | -0.0363 | -0.473 | -0.111 |
| RNF214 (UniProt Q8ND24) | -0.33 | -0.0786 | -0.0159 |
| RNF216 (UniProt Q9NWF9) | 0.679 | -0.0849 | 0.015 |
| RNF219 (UniProt Q5W0B1) | 0.0297 | -0.038 | -0.0978 |
| RNF220 (UniProt Q5VTB9) | -0.283 | -0.19 | -0.015 |
| RNGTT (UniProt O60942) | -0.0249 | -0.0218 | 0.0305 |
| RNH1 (UniProt P13489) | -4.26 | 0.376 | 0.478 |
| RNMT (UniProt O43148) | 0.381 | 0.428 | 0.541 |
| RNPEP (UniProt Q9H4A4) | 0.878 | 0.126 | -0.189 |
| RNPS1 (UniProt Q15287) | 0.528 | 1.23 | 0.438 |
| ROBO1 (UniProt Q9Y6N7) | -0.29 | 0.154 | 0.0459 |
| ROCK1 (UniProt Q13464) | -0.122 | -0.134 | 0.211 |
| ROCK2 (UniProt O75116) | 0.245 | 0.504 | 0.462 |
| ROR2 (UniProt Q01974) | -0.811 | 0.3 | 0.449 |
| RP2 (UniProt O75695) | -0.738 | 0.38 | 1.49 |
| RPA1 (UniProt P27694) | 0.0213 | -0.6 | -0.317 |
| RPA2 (UniProt P15927) | 0.659 | -0.131 | -0.662 |
| RPA3 (UniProt P35244) | 0.872 | 0.313 | 0.624 |
| RPAP1 (UniProt Q9BWH6) | 0.256 | -0.806 | -0.223 |
| RPAP2 (UniProt Q8IXW5) | -0.0605 | -0.0831 | -0.0884 |
| RPAP3 (UniProt Q9H6T3) | 0.38 | -0.367 | -0.207 |
